Results: ChEMBL document CHEMBL3525929, “Paraoxonase 1 as a major bioactivating hydrolase for olmesartan medoxomil in human blood circulation: molecular identification and contribution to plasma metabolism” (Drug Metab Dispos, 2012)
Blank lines part the entries; values can stand above or below the compound they belong to.

Legend:
[1] = Prodrug conversion in human serum LPDS assessed as conversion velocity per mg of protein at 10 uM in presence of Tris-HCl/Ca2+; assay type: ADME, cell-free
[2] = Prodrug conversion in human serum LDL assessed as conversion velocity at 10 uM measured per mg of protein in presence of Tris-HCl/Ca2+; assay type: ADME, cell-free
[3] = test system: Plasma; experiment: Prodrug conversion in human plasma assessed as hydrolysis in presence of 4 fold anti-PON1 IgG/plasma ratio; assay type: ADME
[4] = Prodrug conversion in recombinant human PON1 192QQ mutant expressed in FreeStyle 293-F cells assessed as hydrolysis by single-enzyme Michaelis-Menten model; assay type: ADME, cell-based
[5] = target: T1, Albumin (Homo sapiens, UniProt P02768); experiment: Prodrug conversion in human serum albumin assessed as hydrolysis measured per mg of protein at 10 uM in presence of Ca2+; assay type: ADME
[6] = Prodrug conversion in recombinant human PON1 192RR mutant expressed in FreeStyle 293-F cells measured per mg of protein by single-enzyme Michaelis-Menten model; assay type: ADME, cell-based
[7] = Prodrug conversion in recombinant human PON1 192QQ mutant expressed in FreeStyle 293-F cells assessed as hydrolysis measured per mg of protein at 10 uM in presence of Ca2+; assay type: ADME, cell-based
[8] = test system: Plasma; experiment: Ratio of Vmax to Km in human plasma assessed as hydrolysis measured per mg of protein by single-enzyme Michaelis-Menten model; assay type: ADME
[9] = target: T1, Albumin; experiment: Prodrug conversion in human serum albumin assessed as hydrolysis measured per mg of protein at 10 uM in presence of Zn2+; assay type: ADME
[10] = test system: Plasma; experiment: Prodrug conversion in human plasma assessed as hydrolysis measured per mg of protein at 10 uM in presence of Zn2+; assay type: ADME, cell-free
[11] = test system: Plasma; experiment: Prodrug conversion in human plasma assessed as hydrolysis by single-enzyme Michaelis-Menten model; assay type: ADME, cell-free
[12] = Prodrug conversion in human serum LDL assessed as distribution of hydrolyzing activity measured per ml of serum at 10 uM in presence of Tris-HCl/Ca2+; assay type: ADME, cell-free
[13] = target: T1, Albumin; experiment: Ratio of Vmax to Km in human serum albumin assessed as hydrolysis measured per mg of protein by single-enzyme Michaelis-Menten model; assay type: ADME
[14] = target: T1, Albumin; experiment: Prodrug conversion in human serum albumin assessed as hydrolysis measured per mg of protein at 10 uM in presence of Mg2+; assay type: ADME
[15] = Prodrug conversion in human serum LPDS assessed as distribution of hydrolyzing activity measured per ml of serum at 10 uM in presence of KPB; assay type: ADME, cell-free
[16] = Prodrug conversion in recombinant human PON1 192QQ mutant expressed in FreeStyle 293-F cells measured per mg of protein by single-enzyme Michaelis-Menten model; assay type: ADME, cell-based
[17] = Prodrug conversion in recombinant human PON1 192RR mutant expressed in FreeStyle 293-F cells assessed as hydrolysis measured per mg of protein at 10 uM in presence of Ca2+; assay type: ADME, cell-based
[18] = Prodrug conversion in human serum VLDL and chylomicron assessed as conversion velocity at 10 uM measured per mg of protein in presence of Tris-HCl/Ca2+; assay type: ADME, cell-free
[19] = test system: Plasma; experiment: Prodrug conversion in human plasma assessed as hydrolysis measured per mg of protein at 10 uM in presence of Ca2+; assay type: ADME, cell-free
[20] = Prodrug conversion in recombinant human PON1 192RR mutant expressed in FreeStyle 293-F cells assessed as hydrolysis by single-enzyme Michaelis-Menten model; assay type: ADME, cell-based
[21] = Prodrug conversion in human serum LPDS assessed as conversion velocity per mg of protein at 10 uM in presence of KPB; assay type: ADME, cell-free
[22] = Prodrug conversion in recombinant human PON1 192QQ mutant expressed in FreeStyle 293-F cells assessed as hydrolysis measured per mg of protein at 10 uM in presence of Zn2+; assay type: ADME, cell-based
[23] = Prodrug conversion in human serum HDL assessed as distribution of hydrolyzing activity measured per ml of serum at 10 uM in presence of Tris-HCl/Ca2+; assay type: ADME, cell-free
[24] = Prodrug conversion in human serum VLDL and chylomicron assessed as distribution of hydrolyzing activity measured per ml of serum at 10 uM in presence of Tris-HCl/Ca2+; assay type: ADME, cell-free
[25] = Prodrug conversion in human serum HDL assessed as conversion velocity per mg of protein at 10 uM in presence of Tris-HCl/Ca2+; assay type: ADME, cell-free
[26] = Ratio of Vmax to Km in recombinant human PON1 192RR mutant expressed in FreeStyle 293-F cells assessed as hydrolysis measured per mg of protein by single-enzyme Michaelis-Menten model; assay type: ADME, cell-based
[27] = test system: Plasma; experiment: Prodrug conversion in human plasma assessed as hydrolysis measured per mg of protein at 10 uM in presence of Mg2+; assay type: ADME, cell-free
[28] = Prodrug conversion in human serum LPDS assessed as distribution of hydrolyzing activity measured per ml of serum at 10 uM in presence of Tris-HCl/Ca2+; assay type: ADME, cell-free
[29] = Ratio of Vmax to Km in recombinant human PON1 192QQ mutant expressed in FreeStyle 293-F cells assessed as hydrolysis measured per mg of protein by single-enzyme Michaelis-Menten model; assay type: ADME, cell-based
[30] = Prodrug conversion in recombinant human PON1 192QQ mutant expressed in FreeStyle 293-F cells assessed as hydrolysis measured per mg of protein at 10 uM in presence of Mg2+; assay type: ADME, cell-based
[31] = Prodrug conversion in recombinant human PON1 192RR mutant expressed in FreeStyle 293-F cells assessed as hydrolysis measured per mg of protein at 10 uM in presence of Mg2+; assay type: ADME, cell-based
[32] = Prodrug conversion in recombinant human PON1 192RR mutant expressed in FreeStyle 293-F cells assessed as hydrolysis measured per mg of protein at 10 uM in presence of Zn2+; assay type: ADME, cell-based
[33] = test system: Plasma; experiment: Prodrug conversion in human plasma assessed as hydrolysis measured per mg of protein by single-enzyme Michaelis-Menten model; assay type: ADME, cell-free
[34] = test system: CCCc1nc(C(C)(C)O)c(C(=O)OCc2oc(=O)oc2C)n1Cc1ccc(-c2ccccc2-c2nnn[nH]2)cc1; experiment: Prodrug conversion in human serum albumin assessed as hydrolysis by single-enzyme Michaelis-Menten model; assay type: ADME

T1 sequence (P02768 whole entry): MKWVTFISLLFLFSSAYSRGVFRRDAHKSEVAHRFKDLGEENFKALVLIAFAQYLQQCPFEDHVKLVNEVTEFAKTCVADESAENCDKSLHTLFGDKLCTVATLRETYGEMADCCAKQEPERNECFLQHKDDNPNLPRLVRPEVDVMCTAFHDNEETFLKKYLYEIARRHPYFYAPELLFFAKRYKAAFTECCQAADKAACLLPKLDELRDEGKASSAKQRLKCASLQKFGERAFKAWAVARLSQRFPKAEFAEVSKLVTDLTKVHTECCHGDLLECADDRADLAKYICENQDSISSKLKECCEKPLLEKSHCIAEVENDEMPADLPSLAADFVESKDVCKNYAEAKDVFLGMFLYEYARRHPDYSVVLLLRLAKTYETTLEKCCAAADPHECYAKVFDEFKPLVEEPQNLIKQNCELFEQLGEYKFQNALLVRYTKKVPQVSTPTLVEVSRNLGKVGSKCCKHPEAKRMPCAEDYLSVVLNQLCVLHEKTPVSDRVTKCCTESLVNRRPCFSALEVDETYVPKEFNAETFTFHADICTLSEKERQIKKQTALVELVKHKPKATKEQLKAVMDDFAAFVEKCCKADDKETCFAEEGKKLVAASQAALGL

- Activity [1]: 0.516 nmol/min
- Activity [2]: 12.6 nmol/min
- Drug metabolism [3]: metabolite_not_detected
- Km [4]: 157 µM
- Activity [5]: 0.0102 nmol/min
- Vmax [6]: 140 nmol/min
- Activity [7]: 9.5 nmol/min
- Vmax/Km [8]: 2.77 mL/min
- Activity [9]: 0.0164 nmol/min
- Activity [10]: 0.0918 nmol/min
- Km [11]: 6.71 µM
- Activity [12]: 4.07 nmol/min
- Vmax/Km [13]: 0.00737 mL/min
- Activity [14]: 0.0106 nmol/min
- Activity [15]: 9.04 nmol/min
- Vmax [16]: 124 nmol/min
- Activity [17]: 20.6 nmol/min
- Activity [18]: 13.9 nmol/min
- Activity [19]: 7.91 nmol/min
- Km [20]: 102 µM
- Activity [21]: 0.131 nmol/min
- Activity [22]: 0.75 nmol/min
- Activity [23]: 596 nmol/min
- Activity [24]: 2.42 nmol/min
- Activity [25]: 277 nmol/min
- Vmax/Km [26]: 1.37 mL/min
- Activity [27]: 0.266 nmol/min
- Activity [28]: 35.6 nmol/min
- Vmax/Km [29]: 0.79 mL/min
- Activity [30]: 0.65 nmol/min
- Activity [31]: 2.25 nmol/min
- Activity [32]: 1.75 nmol/min
- Vmax [33]: 18.6 nmol/min
Compound: CCCc1nc(C(C)(C)O)c(C(=O)OCc2oc(=O)oc2C)n1Cc1ccc(-c2ccccc2-c2nnn[nH]2)cc1 [OLMESARTAN MEDOXOMIL]

Compound: Albumin (Homo sapiens)
- Km [34]: 354 µM
- Vmax [34]: 0.00261 µmol/min
